Source: ChEMBL document CHEMBL1201862, “PubChem BioAssay data set” (2004)
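Cells were grown in 96-well plates and exposed to each compound for 48 hours at five concentrations; endpoints were interpolated linearly between bracketing concentrations, or set to the highest concentration if not reached. The concentration for 50% growth inhibition is given as GI50.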 Active and inactive are the calls of the source. Cut-off read from the data, not from the text of the source: active = GI50 up to about 1.1 µM and inactive = higher.

Tests used:
Assay in all cases: NCI tumour cell line growth inhibition, 48 h
SF-295 = system: SF-295
OVCAR-5 = system: OVCAR-5
ACHN = system: ACHN
HCC 2998 = system: HCC 2998
TK-10 = system: TK-10
HL-60 = system: HL-60
HCT-116 = system: HCT-116
SNB-75 = system: SNB-75
T47D = system: T47D
NCI-H522 = system: NCI-H522
U-251 = system: U-251
PC-3 = system: PC-3
HOP-92 = system: HOP-92
A498 = system: A498
SK-MEL-28 = system: SK-MEL-28
MDA-MB-435 = system: MDA-MB-435
HT-29 = system: HT-29
MCF7 = system: MCF7
OVCAR-8 = system: OVCAR-8
OVCAR-4 = system: OVCAR-4

Measured: GI50

NS(=O)(=O)c1cc(C(=O)O)c(Cl)c([N+](=O)[O-])c1Cl
inactive: SF-295 > 100 µM | OVCAR-5 > 100 µM | ACHN > 100 µM | HCC 2998 > 100 µM | TK-10 > 100 µM | HL-60 > 100 µM | HCT-116 > 100 µM | SNB-75 > 100 µM | T47D > 100 µM | NCI-H522 > 100 µM | U-251 > 100 µM | PC-3 > 100 µM | HOP-92 > 100 µM | A498 > 100 µM | SK-MEL-28 > 100 µM | MDA-MB-435 > 100 µM | HT-29 > 100 µM | MCF7 > 100 µM | OVCAR-8 > 100 µM | OVCAR-4 > 100 µM

CC1=NN(c2nc(N)nc(CSCc3nc(N)nc(N(C)C)n3)n2)C(C)(C)C1
inactive: SF-295 > 100 µM | OVCAR-5 > 100 µM | ACHN > 100 µM | HCC 2998 > 100 µM | TK-10 > 100 µM | HL-60 > 100 µM | HCT-116 > 100 µM | SNB-75 60.5 µM | T47D > 100 µM | NCI-H522 > 100 µM | U-251 > 100 µM | PC-3 > 100 µM | HOP-92 > 100 µM | A498 > 100 µM | SK-MEL-28 > 100 µM | MDA-MB-435 > 100 µM | HT-29 > 100 µM | MCF7 > 100 µM | OVCAR-8 > 100 µM | OVCAR-4 > 100 µM

COC(=O)c1c(C)[nH]c2c1cc(O)c1nc(C)c(C)nc12
inactive: SF-295 23.6 µM | OVCAR-5 76.7 µM | ACHN 35.5 µM | HCC 2998 > 100 µM | TK-10 29.2 µM | HL-60 5.77 µM | HCT-116 42.2 µM | SNB-75 19.5 µM | T47D 47.3 µM | NCI-H522 74.8 µM | U-251 60.3 µM | PC-3 23.2 µM | HOP-92 37.9 µM | A498 14.8 µM | SK-MEL-28 > 100 µM | MDA-MB-435 > 100 µM | HT-29 > 100 µM | MCF7 50.9 µM | OVCAR-8 > 100 µM | OVCAR-4 > 100 µM
